Values of other authors in PMC11214510 (Saudi Journal of Biological Sciences, 2024).

System: AChE
Settings: mice, long-term supplementation, 40 mg/kg; ref Kasbe et al., 2015

SMILES: O=c1c2cc(O)c(O)cc2oc2cc(O)c([C@@H]3O[C@H](CO)[C@@H](O)[C@H](O)[C@H]3O)c(O)c12 [mangiferin]
- AChE expression produced by AlCl3: inhibits the expression of AChE
